Experimental data as given in patent US20040242896A1, “Azole compounds as anti-fungal agents” (priority 2001, published 2004).
In brackets after ≈: the same amount, converted by molar mass. Where two headings read alike, the source gives them in different places.

What was measured:
[1] = system: Candida parapsilosis 22019 (QC); assay: MIC determination (NCCLS M27A), Candida parapsilosis 22019 (QC); type: cell-based
Candida krusei 6258 (QC) = assay: MIC determination (NCCLS M27A), Candida krusei 6258 (QC); type: cell-based
[2] = system: Paecilomyces variotti 22319 QC); assay: MIC determination (NCCLS M38P), Paecilomyces variotti 22319 (QC); type: cell-based
Candida albicans 1122 = assay: MIC determination (NCCLS M27A), Candida albicans 1122; type: cell-based
Candida albicans Y-01-19 = assay: MIC determination (NCCLS M27A), Candida albicans Y-01-19; type: cell-based
Candida albicans1162 = assay: MIC determination (NCCLS M27A), Candida albicans 1162; type: cell-based
Candida tropicalis 750 = assay: MIC determination (NCCLS M27A), Candida tropicalis 750; type: cell-based
Candida krusei 766.1 = assay: MIC determination (NCCLS M27A), Candida krusei 766.1; type: cell-based
Candida glabrata 90030 = assay: MIC determination (NCCLS M27A), Candida glabrata 90030; type: cell-based
Histoplasma capsulatum = assay: microbe, parasite or virus in culture; type: cell-based
[3] = system: Cryptococcus neoformans I; assay: MIC determination (NCCLS M27A), Cryptococcus neoformans I; type: cell-based
[4] = system: Cryptococcus neoformans M 106; assay: MIC determination (NCCLS M27A), Cryptococcus neoformans M 106; type: cell-based
[5] = system: Aspergillus fumigatus 1008; assay: MIC determination (NCCLS M38P), Aspergillus fumigatus 1008; type: cell-based
[6] = system: Aspergillus fumigatus Si-I; assay: MIC determination (NCCLS M38P), Aspergillus fumigatus Si-I; type: cell-based
[7] = system: isolates of Aspergillus species; details: background statement; cited from earlier work
[8] = target: lanosterol 14α-de-methylase; details: the target enzyme in the fungus, background statement; cited from earlier work
[9] = Candida albicans Y-01-19, RPMI 1640, MOPS pH 7
[10] = Candida albicans1162, RPMI 1640, MOPS pH 7
[11] = Candida krusei 766.1, RPMI 1640, MOPS pH 7
[12] = Cryptococcus neoformans M 106, RPMI 1640, MOPS pH 7
[13] = Aspergillus fumigatus 1008, RPMI 1640, MOPS pH 7
[14] = Aspergillus fumigatus Si-I, RPMI 1640, MOPS pH 7
[15] = RPMI 1640, MOPS pH 7, read-out: MIC
[16] = Pichia kudriavzevii, RPMI 1640, MOPS pH 7, read-out: MIC
[17] = Nakaseomyces glabratus, RPMI 1640, MOPS pH 7, read-out: MIC

Row | SMILES | MIC ([1]; RPMI 1640, MOPS pH 7) | MIC (Candida krusei 6258 (QC); RPMI 1640, MOPS pH 7) | MIC ([2]; RPMI 1640, MOPS pH 7) | MIC (Candida albicans 1122; RPMI 1640, MOPS pH 7) | MIC (Candida albicans Y-01-19; [9]) | MIC (Candida albicans1162; [10]) | MIC (Candida tropicalis 750; RPMI 1640, MOPS pH 7) | MIC (Candida krusei 766.1; [11]) | MIC (Candida glabrata 90030; RPMI 1640, MOPS pH 7) | MIC (Histoplasma capsulatum; RPMI 1640, MOPS pH 7) | MIC ([3]; RPMI 1640, MOPS pH 7) | MIC [4, 12] | MIC [5, 13] | MIC [6, 14] | MIC [1, 15] | MIC (Candida krusei 6258 (QC); [16]) | MIC [2, 15] | MIC (Candida albicans 1122; [15]) | MIC (Candida tropicalis 750; [15]) | MIC (Candida glabrata 90030; [17]) | further results
1 | C[C@@H]1[C@H](O)[C@@H](C)/C=C/C=C/C=C/C=C/C=C/C=C/C=C/[C@H](O[C@@H]2O[C@H](C)[C@@H](O)[C@H](N)[C@@H]2O)C[C@@H]2O[C@](O)(C[C@@H](O)C[C@@H](O)[C@H](O)CC[C@@H](O)C[C@@H](O)CC(=O)O[C@H]1C)C[C@H](O)[C@H]2C(=O)O [Amphotericin B] | 0.25 µg/mL (≈ 0.271 µM) | 0.25 µg/mL (≈ 0.271 µM) | 0.06 µg/mL (≈ 0.0649 µM) | 0.125 µg/mL (≈ 0.135 µM) | 0.125 µg/mL (≈ 0.135 µM) | 0.06 µg/mL (≈ 0.0649 µM) | 0.125 µg/mL (≈ 0.135 µM) | 0.25 µg/mL (≈ 0.271 µM) | 0.125 µg/mL (≈ 0.135 µM) | 0.25 µg/mL (≈ 0.271 µM) | 0.06 µg/mL (≈ 0.0649 µM) | 0.125 µg/mL (≈ 0.135 µM) | 0.125 µg/mL (≈ 0.135 µM) | 0.125 µg/mL (≈ 0.135 µM) |  |  |  |  |  |  | 
2 | C[C@@H](n1ncn(-c2ccc(OCc3ccccc3)cc2)c1=S)[C@](O)(Cn1cncn1)c1ccc(F)cc1F [Compound No. 2, 2-[(1R,2R)-2 (2,4-Difluorophenyl)-2-hydroxy-1-methyl-3-(1H-1,2,4-triazol-1-yl)propyl]-4-(4-benzyloxyphenyl)-3-(2H, 4H)-1,2,4-thiotriazolone] | 0.002 µg/mL (≈ 0.00374 µM) | 0.125 µg/mL (≈ 0.234 µM) | 0.06 µg/mL (≈ 0.112 µM) |  | 0.03 µg/mL (≈ 0.0561 µM) |  | 0.002 µg/mL (≈ 0.00374 µM) | 0.125 µg/mL (≈ 0.234 µM) | 0.125 µg/mL (≈ 0.234 µM) | 0.03 µg/mL (≈ 0.0561 µM) | 0.00025 µg/mL (≈ 0.000468 µM) | 0.00025 µg/mL (≈ 0.000468 µM) | 0.125 µg/mL (≈ 0.234 µM) | 0.016 µg/mL (≈ 0.0299 µM) |  |  |  |  |  |  | 
3 | OC(Cn1cncn1)(Cn1cncn1)c1ccc(F)cc1F [Fluconazole] |  |  |  |  |  |  |  |  |  |  |  |  |  |  | 2 µg/mL (≈ 6.53 µM) | 32 µg/mL (≈ 104 µM) | 2 µg/mL (≈ 6.53 µM) | 0.5 µg/mL (≈ 1.63 µM) | 0.25 µg/mL (≈ 0.816 µM) | 64 µg/mL (≈ 209 µM) | MIC (Candida albicans Y-01-19; Y0119, Candida albicans Y-01-19, RPMI 1640, MOPS pH 7, read-out: MIC): 8 µg/mL (≈ 26.1 µM); MIC (Candida albicans1162; Candida, ALBICANS1162, pH 7): > 128 µg/mL; MIC (Candida krusei 766.1; Pichia kudriavzevii, 766.1, pH 7): 128 µg/mL (≈ 418 µM); MIC (Histoplasma capsulatum; pH 7): 2 µg/mL (≈ 6.53 µM); MIC [3, 15]: 0.5 µg/mL (≈ 1.63 µM); MIC ([4]; M106, Cryptococcus neoformans M 106, RPMI 1640, MOPS pH 7, read-out: MIC): 2 µg/mL (≈ 6.53 µM); MIC ([5]; Aspergillus fumigatus, 1008, pH 7): > 128 µg/mL; MIC ([6]; Aspergillus fumigatus, pH 7): > 128 µg/mL; minimum inhibitory concentration (MIC) values [7]: 400 µg/mL (≈ 1310 µM); IC50 [8]: 4.8 µM
4 | C[C@@H](n1ncn(-c2ccc(OCc3ccc(Cl)cc3Cl)cc2)c1=S)[C@](O)(Cn1cncn1)c1ccc(F)cc1F [compound 1, 2-[(1R,2R)-2 (2,4-Difluorophenyl)-2-hydroxy-1-methyl-3-(1H-1,2,4-triazol-1-yl)propyl]-4-[4-(2,4-dichlorobenzyloxy)phenyl]-3-(2H, 4H)-1,2,4-thiotriazolone] | <0.125 µg/mL | <0.125 µg/mL | <0.125 µg/mL | <0.125 µg/mL | ≦0.125 μg/ml | ≧64 μg/ml | <0.125 µg/mL | 0.5 µg/mL (≈ 0.829 µM) | 32 µg/mL (≈ 53 µM) | 0.5 µg/mL (≈ 0.829 µM) | <0.03 µg/mL | <0.03 µg/mL | <0.125 µg/mL | <0.125 µg/mL |  |  |  |  |  |  | 
5 | CCC(C)n1ncn(-c2ccc(N3CCN(c4ccc(OCC5COC(Cn6cncn6)(c6ccc(Cl)cc6Cl)O5)cc4)CC3)cc2)c1=O (stereo not shown) [Itraconazole] |  |  |  |  |  |  |  |  |  |  |  |  |  |  | 0.06 µg/mL (≈ 0.085 µM) | 0.5 µg/mL (≈ 0.709 µM) | 0.03 µg/mL (≈ 0.0425 µM) | 0.03 µg/mL (≈ 0.0425 µM) | 0.03 µg/mL (≈ 0.0425 µM) | 2 µg/mL (≈ 2.83 µM) | MIC (Candida albicans Y-01-19; Candida albicans, Y0119, pH 7): 0.125 µg/mL (≈ 0.177 µM); MIC (Candida albicans1162; Candida albicans1162, RPMI 1640, MOPS pH 7, read-out: MIC): 32 µg/mL (≈ 45.3 µM); MIC (Candida krusei 766.1; Pichia kudriavzevii, Candida krusei 766.1, RPMI 1640, MOPS pH 7, read-out: MIC): 0.25 µg/mL (≈ 0.354 µM); MIC (Histoplasma capsulatum; pH 7): 0.25 µg/mL (≈ 0.354 µM); MIC [3, 15]: 0.016 µg/mL (≈ 0.0227 µM); MIC ([4]; Cryptococcus neoformans, M106, pH 7): 0.125 µg/mL (≈ 0.177 µM); MIC ([5]; Aspergillus fumigatus 1008, RPMI 1640, MOPS pH 7, read-out: MIC): 0.25 µg/mL (≈ 0.354 µM); MIC ([6]; Aspergillus fumigatus Si-I, RPMI 1640, MOPS pH 7, read-out: MIC): 0.25 µg/mL (≈ 0.354 µM)
